Experimental data reported in US8252832B2, “Kinesin inhibitors as cancer therapeutics” (Novartis AG, priority 2007, dated 2012).
Read-outs that look alike come from different tables or passages of the source.

System: panel of cell lines and tumor explants
Test: Soft agar (clonogenic) assay on cell lines and tumor explants
Type: cell-based, human
Set-up: key to Differential: panel average log(GI50) minus sample log(GI50); positive = more sensitive
Details: for Differential: average log(GI50) 0.236 minus log(GI50); for GI50: Homo sapiens
Experimental: Compound IIa was tested against a panel of cell lines and tumor explants in a soft agar assay as described in Fiebig, H. H., Maier, A., and Burger, A. M. (Clonogenic assay with established human tumour xenorafts: correlation of in vitro to in vivo activity as a basis for anticancer drug discovery, Eur. J. Cancer 40, 802-820 (2004).) Table 16 lists the type of cancer, the name of the sample, its GI50 (concentration needed to achieve 50% growth inhibition) value in the assay, the logarithm of the GI50 (log(GI50), and the relative sensitivity of each sample (Differential). The differential is calculated by subtracting the log(GI50) for each cell line from the average log(GI50) across the entire panel (0.236 in this case); a positive value indicates a sample that is more sensitive than average, whereas a negative value indicates a sample that is less sensitive than average.

CC(C)(C)[C@H](c1nc(-c2cc(F)ccc2F)cn1Cc1ccccc1)N(CC[C@H](N)CF)C(=O)CO [Compound IIa]
Differential (Bladder, sample 439): −0.764
Differential (Bladder, sample 1036): 1.176
Differential (Bladder, sample 1218): 0.530
Differential (Bladder, sample 1228): 0.738
Differential (Bladder, sample 1258): −0.996
Differential (Bladder, sample 1352): 0.249
Differential (Breast, sample 401): 0.486
Differential (Breast, sample 449): 0.509
Differential (Breast, sample 574): −0.764
Differential (Breast, sample 583): 0.858
Differential (Breast, sample 713): 0.849
Differential (Breast, sample 857): −0.154
Differential (Breast, sample 1162): 0.780
Differential (Breast, sample 1322): 0.090
Differential (Breast, sample 1384): −0.189
Differential (Breast, sample 1398): 0.858
Differential (Colorectal, sample 94LX): −1.054
Differential (Colorectal, sample 158): −0.764
Differential (Colorectal, sample 233): 0.860
Differential (Colorectal, sample 243): −0.764
Differential (Colorectal, sample 260): −0.764
Differential (Colorectal, sample 268): −0.559
Differential (Colorectal, sample 280): −0.764
Differential (Colorectal, sample 504): 0.800
Differential (Colorectal, sample 533): −0.007
Differential (Colorectal, sample 609): −0.764
Differential (Colorectal, sample 647): −0.764
Differential (Colorectal, sample 676): −0.764
Differential (Colorectal, sample 742): −0.036
Differential (Colorectal, sample 975): −0.764
Differential (Colorectal, sample 1034): 0.906
Differential (Colorectal, sample 1044): 0.450
Differential (Colorectal, sample 1103): 0.236
Differential (Colorectal, sample 1297): −0.764
Differential (Colorectal, sample 1299): −0.764
Differential (Colorectal, sample 1729): −0.764
Differential (Colorectal, sample 1753): −0.816
Differential (Colorectal, sample 1783): 0.378
Differential (Colorectal, sample 1784): −0.539
Differential (Colorectal, sample 1788): −0.115
Differential (Gastric, sample 209): −0.764
Differential (Gastric, sample 214): −0.718
Differential (Gastric, sample 1172): −0.764
GI50 (22Rv1, Prostate, sample 22RV1, GI50 in nM, read-out: log(GI50) (converted)): 0.537 nM
GI50 (22Rv1, Prostate, sample 22RV1, read-out: GI50): 0.537 nM
GI50 (Bladder, sample 439, GI50 in nM, read-out: log(GI50) (converted)): ≥ 10 nM
GI50 (Bladder, sample 439, read-out: GI50): 10 nM
GI50 (Bladder, sample 1036, GI50 in nM, read-out: log(GI50) (converted)): 0.115 nM
GI50 (Bladder, sample 1036, read-out: GI50): 0.115 nM
GI50 (Bladder, sample 1218, GI50 in nM, read-out: log(GI50) (converted)): 0.509 nM
GI50 (Bladder, sample 1218, read-out: GI50): 0.509 nM
GI50 (Bladder, sample 1228, GI50 in nM, read-out: log(GI50) (converted)): 0.315 nM
GI50 (Bladder, sample 1228, read-out: GI50): 0.315 nM
GI50 (Bladder, sample 1258, GI50 in nM, read-out: log(GI50) (converted)): 17.1 nM
GI50 (Bladder, sample 1258, read-out: GI50): 17.1 nM
GI50 (Bladder, sample 1352, GI50 in nM, read-out: log(GI50) (converted)): 0.973 nM
GI50 (Bladder, sample 1352, read-out: GI50): 0.972 nM
GI50 (Breast, sample 401, GI50 in nM, read-out: log(GI50) (converted)): 0.564 nM
GI50 (Breast, sample 401, read-out: GI50): 0.563 nM
GI50 (Breast, sample 449, GI50 in nM, read-out: log(GI50) (converted)): 0.535 nM
GI50 (Breast, sample 449, read-out: GI50): 0.534 nM
GI50 (Breast, sample 574, GI50 in nM, read-out: log(GI50) (converted)): ≥ 10 nM
GI50 (Breast, sample 574, read-out: GI50): 10 nM
GI50 (Breast, sample 583, GI50 in nM, read-out: log(GI50) (converted)): 0.239 nM
GI50 (Breast, sample 583, read-out: GI50): 0.239 nM
GI50 (Breast, sample 713, GI50 in nM, read-out: log(GI50) (converted)): 0.244 nM
GI50 (Breast, sample 713, read-out: GI50): 0.244 nM
GI50 (Breast, sample 857, GI50 in nM, read-out: log(GI50) (converted)): 2.45 nM
GI50 (Breast, sample 857, read-out: GI50): 2.46 nM
GI50 (Breast, sample 1162, GI50 in nM, read-out: log(GI50) (converted)): 0.286 nM
GI50 (Breast, sample 1162, read-out: GI50): 0.286 nM
GI50 (Breast, sample 1322, GI50 in nM, read-out: log(GI50) (converted)): 1.4 nM
GI50 (Breast, sample 1322, read-out: GI50): 1.4 nM
GI50 (Breast, sample 1384, GI50 in nM, read-out: log(GI50) (converted)): 2.67 nM
GI50 (Breast, sample 1384, read-out: GI50): 2.67 nM
GI50 (Breast, sample 1398, GI50 in nM, read-out: log(GI50) (converted)): 0.239 nM
GI50 (Breast, sample 1398, read-out: GI50): 0.239 nM
GI50 (CCRF-CEM, Leukemia (ALL), sample CCRFCEM, GI50 in nM, read-out: log(GI50) (converted)): 0.287 nM
GI50 (CCRF-CEM, Leukemia (ALL), sample CCRFCEM, read-out: GI50): 0.287 nM
GI50 (Colorectal, sample 94LX, GI50 in nM, read-out: log(GI50) (converted)): 19.5 nM
GI50 (Colorectal, sample 94LX, read-out: GI50): 19.5 nM
GI50 (Colorectal, sample 158, GI50 in nM, read-out: log(GI50) (converted)): ≥ 10 nM
GI50 (Colorectal, sample 158, read-out: GI50): 10 nM
GI50 (Colorectal, sample 233, GI50 in nM, read-out: log(GI50) (converted)): 0.238 nM
GI50 (Colorectal, sample 233, read-out: GI50): 0.238 nM
GI50 (Colorectal, sample 243, GI50 in nM, read-out: log(GI50) (converted)): ≥ 10 nM
GI50 (Colorectal, sample 243, read-out: GI50): 10 nM
GI50 (Colorectal, sample 260, GI50 in nM, read-out: log(GI50) (converted)): ≥ 10 nM
GI50 (Colorectal, sample 260, read-out: GI50): 10 nM
GI50 (Colorectal, sample 268, GI50 in nM, read-out: log(GI50) (converted)): 6.24 nM
GI50 (Colorectal, sample 268, read-out: GI50): 6.24 nM
GI50 (Colorectal, sample 280, GI50 in nM, read-out: log(GI50) (converted)): ≥ 10 nM
GI50 (Colorectal, sample 280, read-out: GI50): 10 nM
GI50 (Colorectal, sample 504, GI50 in nM, read-out: log(GI50) (converted)): 0.273 nM
GI50 (Colorectal, sample 504, read-out: GI50): 0.273 nM
GI50 (Colorectal, sample 533, GI50 in nM, read-out: log(GI50) (converted)): 1.75 nM
GI50 (Colorectal, sample 533, read-out: GI50): 1.75 nM
GI50 (Colorectal, sample 609, GI50 in nM, read-out: log(GI50) (converted)): ≥ 10 nM
GI50 (Colorectal, sample 609, read-out: GI50): 10 nM
GI50 (Colorectal, sample 647, GI50 in nM, read-out: log(GI50) (converted)): ≥ 10 nM
GI50 (Colorectal, sample 647, read-out: GI50): 10 nM
GI50 (Colorectal, sample 676, GI50 in nM, read-out: log(GI50) (converted)): ≥ 10 nM
GI50 (Colorectal, sample 676, read-out: GI50): 10 nM
GI50 (Colorectal, sample 742, GI50 in nM, read-out: log(GI50) (converted)): 1.87 nM
GI50 (Colorectal, sample 742, read-out: GI50): 1.87 nM
GI50 (Colorectal, sample 975, GI50 in nM, read-out: log(GI50) (converted)): ≥ 10 nM
GI50 (Colorectal, sample 975, read-out: GI50): 10 nM
GI50 (Colorectal, sample 1034, GI50 in nM, read-out: log(GI50) (converted)): 0.214 nM
GI50 (Colorectal, sample 1034, read-out: GI50): 0.214 nM
GI50 (Colorectal, sample 1044, GI50 in nM, read-out: log(GI50) (converted)): 0.612 nM
GI50 (Colorectal, sample 1044, read-out: GI50): 0.612 nM
GI50 (Colorectal, sample 1103, GI50 in nM, read-out: log(GI50) (converted)): 1 nM
GI50 (Colorectal, sample 1103, read-out: GI50): 1 nM
GI50 (Colorectal, sample 1297, GI50 in nM, read-out: log(GI50) (converted)): ≥ 10 nM
GI50 (Colorectal, sample 1297, read-out: GI50): 10 nM
GI50 (Colorectal, sample 1299, GI50 in nM, read-out: log(GI50) (converted)): ≥ 10 nM
GI50 (Colorectal, sample 1299, read-out: GI50): 10 nM
GI50 (Colorectal, sample 1729, GI50 in nM, read-out: log(GI50) (converted)): ≥ 10 nM
GI50 (Colorectal, sample 1729, read-out: GI50): 10 nM
GI50 (Colorectal, sample 1753, GI50 in nM, read-out: log(GI50) (converted)): 11.3 nM
GI50 (Colorectal, sample 1753, read-out: GI50): 11.3 nM
GI50 (Colorectal, sample 1783, GI50 in nM, read-out: log(GI50) (converted)): 0.721 nM
GI50 (Colorectal, sample 1783, read-out: GI50): 0.721 nM
GI50 (Colorectal, sample 1784, GI50 in nM, read-out: log(GI50) (converted)): 5.97 nM
GI50 (Colorectal, sample 1784, read-out: GI50): 5.97 nM
GI50 (Colorectal, sample 1788, GI50 in nM, read-out: log(GI50) (converted)): 2.24 nM
GI50 (Colorectal, sample 1788, read-out: GI50): 2.25 nM
GI50 (DU-145, Prostate, sample DU145, GI50 in nM, read-out: log(GI50) (converted)): 1 nM
GI50 (DU-145, Prostate, sample DU145, read-out: GI50): 1 nM
GI50 (Gastric, sample 209, GI50 in nM, read-out: log(GI50) (converted)): ≥ 10 nM
GI50 (Gastric, sample 209, read-out: GI50): 10 nM
GI50 (Gastric, sample 214, GI50 in nM, read-out: log(GI50) (converted)): 8.99 nM
GI50 (Gastric, sample 214, read-out: GI50): 9 nM
GI50 (Gastric, sample 1172, GI50 in nM, read-out: log(GI50) (converted)): ≥ 10 nM
GI50 (Gastric, sample 1172, read-out: GI50): 10 nM
GI50 (Jurkat, Leukemia (ALL), sample JURKAT, GI50 in nM, read-out: log(GI50) (converted)): 0.106 nM
GI50 (Jurkat, Leukemia (ALL), sample JURKAT, read-out: GI50): 0.106 nM
GI50 (K562, Leukemia (CML), sample K562, GI50 in nM, read-out: log(GI50) (converted)): 0.27 nM
GI50 (K562, Leukemia (CML), sample K562, read-out: GI50): 0.27 nM
GI50 (MOLT-4, Leukemia (ALL), sample MOLT4, GI50 in nM, read-out: log(GI50) (converted)): 0.877 nM
